Experimental data reported in the NIST ThermoML archive (doi:10.1021/acs.jced.7b00466).
Numbers after ± are expanded uncertainties. One block for each molecule: values may come before it.

Settings: for viscosity / speed of sound / mass density: 102 kPa, Liquid; for viscosity: Concentric cylinders viscometry; for speed of sound: Frequency=3 MHz, Sing-around technique in a fixed-path interferometer; for mass density: Vibrating tube method; for surface tension liquid-gas: Pendant drop shape

Structure (SMILES): Cc1ccccc1 [toluene]
surface tension liquid-gas (293 K): 28.6 ± 0.3 mN/m

Structure (SMILES): CCCCC1CCCCC1 [butylcyclohexane]
viscosity (293.15 K): 1.31 ± 0.01 mPa·s | speed of sound (293.15 K): 1327.7 ± 1 m/s | mass density (293.15 K): 799.33 ± 0.2 kg/m3 | surface tension liquid-gas (294.5 K): 26.6 ± 0.3 mN/m | viscosity (303.15 K): 1.11 ± 0.01 mPa·s | speed of sound (303.15 K): 1287.9 ± 1 m/s | mass density (303.15 K): 791.82 ± 0.2 kg/m3 | viscosity (313.15 K): 0.961 ± 0.012 mPa·s | speed of sound (313.15 K): 1248.7 ± 1 m/s | mass density (313.15 K): 784.28 ± 0.2 kg/m3 | viscosity (323.15 K): 0.837 ± 0.012 mPa·s | speed of sound (323.15 K): 1210.3 ± 1 m/s | mass density (323.15 K): 776.7 ± 0.2 kg/m3 | viscosity (333.15 K): 0.736 ± 0.011 mPa·s | speed of sound (333.15 K): 1172.6 ± 1 m/s | mass density (333.15 K): 769.09 ± 0.2 kg/m3 | viscosity (343.15 K): 0.653 ± 0.011 mPa·s | mass density (343.15 K): 761.4 ± 0.5 kg/m3

Structure (SMILES): CCCCc1ccccc1 [butylbenzene]
viscosity (293.15 K): 1.06 ± 0.01 mPa·s | speed of sound (293.15 K): 1352.8 ± 1 m/s | mass density (293.15 K): 860.6 ± 0.19 kg/m3 | surface tension liquid-gas (294.4 K): 28.8 ± 0.3 mN/m | viscosity (303.15 K): 0.915 ± 0.012 mPa·s | speed of sound (303.15 K): 1314 ± 1 m/s | mass density (303.15 K): 852.56 ± 0.19 kg/m3 | viscosity (313.15 K): 0.801 ± 0.012 mPa·s | speed of sound (313.15 K): 1275.8 ± 1 m/s | mass density (313.15 K): 844.5 ± 0.19 kg/m3 | viscosity (323.15 K): 0.708 ± 0.011 mPa·s | speed of sound (323.15 K): 1238.2 ± 1 m/s | mass density (323.15 K): 836.41 ± 0.19 kg/m3 | viscosity (333.15 K): 0.631 ± 0.011 mPa·s | speed of sound (333.15 K): 1201.4 ± 1 m/s | mass density (333.15 K): 828.29 ± 0.19 kg/m3 | viscosity (343.15 K): 0.566 ± 0.011 mPa·s | mass density (343.15 K): 820.3 ± 0.5 kg/m3

Results, then the molecule that gave them:

viscosity (293.15 K): 1.68 ± 0.01 mPa·s | speed of sound (293.15 K): 1374.7 ± 1.1 m/s | mass density (293.15 K): 857.69 ± 0.7 kg/m3 | surface tension liquid-gas (294.1 K): 29.4 ± 0.4 mN/m | viscosity (303.15 K): 1.41 ± 0.01 mPa·s | speed of sound (303.15 K): 1337.3 ± 1.1 m/s | mass density (303.15 K): 850.09 ± 0.7 kg/m3 | viscosity (313.15 K): 1.2 ± 0.01 mPa·s | speed of sound (313.15 K): 1300.5 ± 1.1 m/s | mass density (313.15 K): 842.49 ± 0.7 kg/m3 | viscosity (323.15 K): 1.03 ± 0.01 mPa·s | speed of sound (323.15 K): 1264.3 ± 1.1 m/s | mass density (323.15 K): 834.87 ± 0.7 kg/m3 | viscosity (333.15 K): 0.901 ± 0.012 mPa·s | speed of sound (333.15 K): 1228.8 ± 1.1 m/s | mass density (333.15 K): 827.48 ± 0.7 kg/m3 | viscosity (343.15 K): 0.794 ± 0.012 mPa·s | mass density (343.15 K): 819.5 ± 2 kg/m3
Structure (SMILES): CCCCCCc1ccccc1 [hexylbenzene]

viscosity (293.15 K): 1.47 ± 0.02 mPa·s | speed of sound (293.15 K): 1297.3 ± 1.3 m/s | mass density (293.15 K): 748.79 ± 1.5 kg/m3 | surface tension liquid-gas (293.6 K): 25 ± 0.3 mN/m | viscosity (303.15 K): 1.23 ± 0.01 mPa·s | speed of sound (303.15 K): 1259.1 ± 1.3 m/s | mass density (303.15 K): 741.54 ± 1.5 kg/m3 | viscosity (313.15 K): 1.05 ± 0.01 mPa·s | speed of sound (313.15 K): 1221.5 ± 1.3 m/s | mass density (313.15 K): 734.25 ± 1.5 kg/m3 | viscosity (323.15 K): 0.902 ± 0.012 mPa·s | speed of sound (323.15 K): 1184.4 ± 1.3 m/s | mass density (323.15 K): 726.94 ± 1.5 kg/m3 | viscosity (333.15 K): 0.786 ± 0.012 mPa·s | speed of sound (333.15 K): 1148 ± 1.3 m/s | mass density (333.15 K): 719.59 ± 1.5 kg/m3 | viscosity (343.15 K): 0.69 ± 0.012 mPa·s | mass density (343.15 K): 712.2 ± 4.3 kg/m3
Structure (SMILES): CCCCCCCCCCCC [dodecane]

viscosity (293.15 K): 3.43 ± 0.02 mPa·s | speed of sound (293.15 K): 1356.4 ± 1 m/s | mass density (293.15 K): 773.42 ± 0.32 kg/m3 | surface tension liquid-gas (294 K): 27.2 ± 0.3 mN/m | viscosity (303.15 K): 2.72 ± 0.02 mPa·s | speed of sound (303.15 K): 1319 ± 1 m/s | mass density (303.15 K): 766.47 ± 0.32 kg/m3 | viscosity (313.15 K): 2.2 ± 0.02 mPa·s | speed of sound (313.15 K): 1282.6 ± 1 m/s | mass density (313.15 K): 759.55 ± 0.32 kg/m3 | viscosity (323.15 K): 1.82 ± 0.01 mPa·s | speed of sound (323.15 K): 1246.9 ± 1 m/s | mass density (323.15 K): 752.63 ± 0.32 kg/m3 | viscosity (333.15 K): 1.54 ± 0.01 mPa·s | speed of sound (333.15 K): 1212 ± 1 m/s | mass density (333.15 K): 745.71 ± 0.32 kg/m3 | viscosity (343.15 K): 1.31 ± 0.01 mPa·s | mass density (343.15 K): 738.8 ± 0.9 kg/m3
Structure (SMILES): CCCCCCCCCCCCCCCC [hexadecane]
